Laboratory results taken from patent US11872217B2, “Indanes as PD-L1 inhibitors” (CHEMOCENTRYX, INC., priority 2019, dated 2024).

Target: human PD-L1 / Human PD-1 (Homo sapiens (Human), UniProt Q9NZQ7)
Assay: Enzyme-Linked Immunosorbent Assay (ELISA), PD-1/PD-L1 binding
Conditions: plates coated with human PD-L1; biotinylated human PD-1; absorbance at 450 nm
Protocol: 96 Well plates were coated with 1 μg/mL of human PD-L1 (obtained from R&D) in PBS overnight at 4° C. The wells were then blocked with 2% BSA in PBS (W/V) with 0.05% TWEEN-20 for 1 hour at 37° C. The plates were washed 3 times with PBS/0.05% TWEEN-20 and the compounds were serial diluted (1:5) in dilution medium and added to the ELISA plates. Human PD-1 and biotin 0.3 μg/mL (ACRO Biosystems) were added and incubated for 1 hour at 37° C. then washed 3 times with PBS/0.05% TWEEN-20. A second block was performed with 2% BSA in PBS (W/V)/0.05% TWEEN-20 for 10 min at 37° C. and the plates were washed 3 times with PBS/0.05% TWEEN-20. Streptavidin-HRP was added for 1 hour at 37° C. then the plates were washed 3 times with PBS/0.05% TWEEN-20. TMB substrate was added and reacted for 20 min at 37° C. A stop solution (2 N aqueous H2SO4) was added. The absorbance was read at 450 nm using a micro-plate spectrophotometer. The results are shown in Table 1: IC50 values are provided as follows: from 100 up to 10,000 nM (+); less than 100 nM (++).

Chain of human PD-L1 / Human PD-1 (Q9NZQ7 19-239): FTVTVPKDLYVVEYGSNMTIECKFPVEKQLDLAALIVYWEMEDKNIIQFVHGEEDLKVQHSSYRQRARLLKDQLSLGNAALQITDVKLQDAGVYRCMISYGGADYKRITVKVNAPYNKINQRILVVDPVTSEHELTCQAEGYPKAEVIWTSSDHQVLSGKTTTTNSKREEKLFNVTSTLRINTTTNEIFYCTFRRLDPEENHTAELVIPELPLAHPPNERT

`C[C@@](CO)(NCc1cc(Cl)c(O[C@H]2CCc3c(-c4cccc5c4CC[C@@H]5Oc4cc(OCc5cncc(C#N)c5)c(CN[C@@](C)(CO)C(=O)O)cc4Cl)cccc32)cc1OCc1cncc(C#N)c1)C(=O)O` [Compound 1.051] and `CCOc1cc(O[C@H]2CCc3c(-c4cccc5c4CC[C@@H]5Oc4cc(OCc5cncc(C#N)c5)c(CN[C@@](C)(CO)C(=O)O)cc4Cl)cccc32)c(Cl)cc1CN[C@@](C)(CO)C(=O)O` [Compound 1.040] cannot be ordered by IC50: under 0.1 µM for the first, under 0.1 µM for the second.

First: CC(C)OC(=O)[C@](C)(CO)NCc1cc(Cl)c(O[C@H]2CCc3c(-c4cccc5c4CC[C@@H]5Oc4cc(OCc5cncc(C#N)c5)c(CN[C@@](C)(CO)C(=O)OC(C)C)cc4Cl)cccc32)cc1OCc1cncc(C#N)c1 [Compound 1.041]
Second: C[C@@H](O)[C@H](NCc1cc(Cl)c(O[C@H]2CCc3c(-c4cccc5c4CC[C@@H]5Oc4cc(OCc5cncc(C#N)c5)c(CN[C@H](C(=O)O)[C@@H](C)O)cc4Cl)cccc32)cc1OCc1cncc(C#N)c1)C(=O)O [Compound 1.039]
The IC50 of the first is higher: 0.1 to 10 µM for the first, under 0.1 µM for the second.

`CCOc1cc(O[C@H]2CCc3c(-c4cccc5c4CC[C@@H]5Oc4cc(OCC)c(CN(C)[C@@](C)(CO)C(=O)O)cc4Cl)cccc32)c(Cl)cc1CN(C)[C@@](C)(CO)C(=O)O` [Compound 1.019] and `CCOc1cc(O[C@H]2CCc3c(-c4cccc5c4CC[C@@H]5Oc4cc(OCC)c(CN(C)CCCC(=O)O)cc4Cl)cccc32)c(Cl)cc1CN(C)CCCC(=O)O` [Compound 1.025] cannot be ordered by IC50: under 0.1 µM for the first, under 0.1 µM for the second.

`CCOc1cc(O[C@H]2CCc3c(-c4cccc(COc5cc(COC)c(CN(C)CCCC(=O)O)cc5Cl)c4C)cccc32)c(Cl)cc1CN(C)CCCC(=O)O` [Compound 1.012] and `CCOc1cc(O[C@H]2CCc3c(-c4cccc(COc5cc(COC)c(CN[C@@](C)(CO)C(=O)O)cc5Cl)c4C)cccc32)c(Cl)cc1CN[C@@](C)(CO)C(=O)O` [Compound 1.036] cannot be ordered by IC50: under 0.1 µM for the first, under 0.1 µM for the second.

First: COc1cc(CN[C@@](C)(CO)C(=O)O)ccc1OCc1cccc(-c2cccc3c2CCC3Oc2ccc(CN[C@@](C)(CO)C(=O)O)cc2OC)c1C (stereo partly shown) [Compound 1.011]
Second: Cc1c(COc2ccc(CN[C@@](C)(CO)C(=O)O)cc2Cl)cccc1-c1cccc2c1CCC2Oc1ccc(CN[C@@](C)(CO)C(=O)O)cc1Cl (stereo partly shown) [Compound 1.024]
The IC50 of the first is higher: 0.1 to 10 µM for the first, under 0.1 µM for the second.

Compared with `CCOc1cc(O[C@H]2CCc3c(-c4cccc5c4CC[C@@H]5Oc4cc(OCC)c(CN[C@H](C(=O)OC)[C@@H](C)O)cc4Cl)cccc32)c(Cl)cc1CN[C@H](C(=O)OC)[C@@H](C)O` [Compound 1.034], `CCOc1cc(O[C@H]2CCc3c(-c4cccc5c4CC[C@@H]5Oc4cc(OCC)c(CN[C@@](C)(CO)C(=O)O)cc4Cl)cccc32)c(Cl)cc1CN[C@@H]1CCC[C@@H]1O` [Compound 1.013] is lower in IC50: 0.1 to 10 µM for the first, under 0.1 µM for the second.

`CCOc1cc(O[C@H]2CCc3c(-c4cccc5c4CC[C@@H]5Oc4cc(OCC)c(CN[C@@](C)(CO)C(=O)O)cc4Cl)cccc32)c(Cl)cc1CNC[C@@H]1CCC(=O)N1` [Compound 1.032] and `CCOc1cc(O[C@H]2CCc3c(-c4cccc(COc5ccc(CN(C)C)cc5)c4C)cccc32)c(Cl)cc1CN[C@@](C)(CO)C(=O)O` [Compound 1.037] cannot be ordered by IC50: under 0.1 µM for the first, under 0.1 µM for the second.

`CCOc1cc(O[C@H]2CCc3c(-c4cccc(COc5cc(COC)c(CN6CCC(OC(=O)C(C)C)CC6)cc5Cl)c4C)cccc32)c(Cl)cc1CN1CCC(OC(=O)C(C)C)CC1` [Compound 1.005] and `CCOc1cc(O[C@H]2CCc3c(-c4cccc(COc5cc(COC)c(CN6CCC(OC(=O)[C@@H](N)C(C)C)CC6)cc5Cl)c4C)cccc32)c(Cl)cc1CN1CCC(OC(=O)[C@@H](N)C(C)C)CC1` [Compound 1.001] fall in the same range of IC50: 0.1 to 10 µM for the first, 0.1 to 10 µM for the second.
